PubChem BioAssay AID1963875 (Molecular Pharmacology Branch, DTP, NCI, 2024)
Where “and” joins values, the source holds several entries; their conditions need not be identical. Equal values may be shown once.

Test system: KRAS-mutant PDC complex spheroid viability
Test: Anticancer human tumor 186277-243-T-J2-PDC patient-derived colon adenocarcinoma cell line growth inhibition [KRAS2]
Details: for viability, T/C: stronger effect = lower value
Summary of the method: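 KRAS-mutant tumor cells were grown as spheroids with HUVEC endothelial cells and human MSCs as stroma. Targeted agents were tested alone and with KRAS pathway inhibitors. Doses started at or near clinical Cmax, or 10 microM, descending half-log.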

[1] = curve of first compound, second compound 0.1 µM
[2] = curve of first compound, second compound 0.316 µM
[3] = curve of first compound, second compound 1 µM
[4] = curve of first compound, second compound 3.16 µM
[5] = curve of first compound, second compound 10 µM
[6] = second compound 0.1 µM, first compound 0.00316 µM
[7] = second compound 0.1 µM, first compound 0.01 µM
[8] = second compound 0.1 µM, first compound 0.0316 µM
[9] = second compound 0.1 µM, first compound 0.1 µM
[10] = second compound 0.316 µM, first compound 0.00316 µM
[11] = second compound 0.316 µM, first compound 0.01 µM
[12] = second compound 0.316 µM, first compound 0.0316 µM
[13] = second compound 0.316 µM, first compound 0.1 µM
[14] = second compound 1 µM, first compound 0.00316 µM
[15] = second compound 1 µM, first compound 0.01 µM
[16] = second compound 1 µM, first compound 0.0316 µM
[17] = second compound 1 µM, first compound 0.1 µM
[18] = second compound 3.16 µM, first compound 0.00316 µM
[19] = second compound 3.16 µM, first compound 0.01 µM
[20] = second compound 3.16 µM, first compound 0.0316 µM
[21] = second compound 3.16 µM, first compound 0.1 µM
[22] = second compound 10 µM, first compound 0.00316 µM
[23] = second compound 10 µM, first compound 0.01 µM
[24] = second compound 10 µM, first compound 0.0316 µM
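Wherever viability, T/C is given: viability read after seven days of compound exposure; 100% = DMSO vehicle-treated spheroids so lower means less viable.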

SMILES: CCN1CCN(Cc2ccc(Nc3ncc(F)c(-c4cc(F)c5nc(C)n(C(C)C)c5c4)n3)nc2)CC1 + C=CC(=O)N1CCN(c2nc(=O)n(-c3c(C)ccnc3C(C)C)c3nc(-c4c(O)cccc4F)c(F)cc23)C(C)C1
- IC50 [1]: > 1000 nM
- IC50 [2]: > 1000 nM
- IC50 [3]: > 1000 nM
- IC50 [4]: > 1000 nM
- IC50 [5]: 571 nM
- viability, T/C [6]: 107%
- viability, T/C [7]: 95%
- viability, T/C [8]: 98.4%
- viability, T/C [9]: 129%
- viability, T/C (second compound 0.1 µM, first compound 0.316 µM): 158%
- viability, T/C (second compound 0.1 µM, first compound 1 µM): 96.6%
- viability, T/C [10]: 104%
- viability, T/C [11]: 101%
- viability, T/C [12]: 103%
- viability, T/C [13]: 117%
- viability, T/C (second compound 0.316 µM, first compound 0.316 µM): 157%
- viability, T/C (second compound 0.316 µM, first compound 1 µM): 105%
- viability, T/C [14]: 109%
- viability, T/C [15]: 103%
- viability, T/C [16]: 99.7%
- viability, T/C [17]: 113%
- viability, T/C (second compound 1 µM, first compound 0.316 µM): 153%
- viability, T/C (second compound 1 µM, first compound 1 µM): 99.7%
- viability, T/C [18]: 92.2%
- viability, T/C [19]: 102%
- viability, T/C [20]: 108%
- viability, T/C [21]: 139%
- viability, T/C (second compound 3.16 µM, first compound 0.316 µM): 175%
- viability, T/C (second compound 3.16 µM, first compound 1 µM): 73%
- viability, T/C [22]: 69.1%
- viability, T/C [23]: 64.8%
- viability, T/C [24]: 83.3%
- viability, T/C (second compound 10 µM, first compound 0.316 µM): 74.1%
- viability, T/C (second compound 10 µM, first compound 1 µM): 27.5%

SMILES: CN(C)C/C=C/C(=O)Nc1cc2c(Nc3ccc(F)c(Cl)c3)ncnc2cc1O[C@H]1CCOC1 + COc1cc2nc(C)nc(NC(C)c3cc(N)cc(C(F)(F)F)c3)c2cc1OC1CCOC1
- IC50 [1]: > 100 nM
- IC50 [2]: > 100 nM
- IC50 [3]: > 100 nM
- IC50 [4]: > 100 nM
- IC50 [5]: > 100 nM
- viability, T/C (second compound 0.1 µM, first compound 0.000316 µM): 102%
- viability, T/C (second compound 0.1 µM, first compound 0.001 µM): 107%
- viability, T/C [6]: 112%
- viability, T/C [7]: 110%
- viability, T/C [8]: 108%
- viability, T/C [9]: 96.8%
- viability, T/C (second compound 0.316 µM, first compound 0.000316 µM): 94.3%
- viability, T/C (second compound 0.316 µM, first compound 0.001 µM): 105%
- viability, T/C [10]: 106%
- viability, T/C [11]: 115%
- viability, T/C [12]: 99.2%
- viability, T/C [13]: 89.2%
- viability, T/C (second compound 1 µM, first compound 0.000316 µM): 96.7%
- viability, T/C (second compound 1 µM, first compound 0.001 µM): 93.8%
- viability, T/C [14]: 91%
- viability, T/C [15]: 105%
- viability, T/C [16]: 113%
- viability, T/C [17]: 105%
- viability, T/C (second compound 3.16 µM, first compound 0.000316 µM): 93.4%
- viability, T/C (second compound 3.16 µM, first compound 0.001 µM): 97.9%
- viability, T/C [18]: 97.4%
- viability, T/C [19]: 100%
- viability, T/C [20]: 84.4%
- viability, T/C [21]: 79.3%
- viability, T/C (second compound 10 µM, first compound 0.000316 µM): 109%
- viability, T/C (second compound 10 µM, first compound 0.001 µM): 105%
- viability, T/C [22]: 114%
- viability, T/C [23]: 91.2%
- viability, T/C [24]: 81.4%
- viability, T/C (second compound 10 µM, first compound 0.1 µM): 61.4%

SMILES: CC(C)n1nc(-c2ccc3oc(N)nc3c2)c2c(N)ncnc21
- viability, T/C (compound 0.000316 µM): 95.7% [middle of 5 runs]
- viability, T/C (compound 0.001 µM): 98.8% [middle of 5 runs]
- viability, T/C (compound 0.00316 µM): 77.8% [middle of 5 runs]
- viability, T/C (compound 0.01 µM): 56.7% [middle of 5 runs]
- viability, T/C (compound 0.0316 µM): 32.1% [middle of 5 runs]
- viability, T/C (compound 0.1 µM): 19.2% [middle of 5 runs]
- IC50 (curve of compound): 14.1 nM [middle of 5 runs]

SMILES: CC(C)NCC(C(=O)N1CCN(c2ncnc3c2C(C)CC3O)CC1)c1ccc(Cl)cc1 (configuration not stated)
- viability, T/C (compound 0.0316 µM): 89.6% [middle of 5 runs]
- viability, T/C (compound 0.1 µM): 89.8% [middle of 5 runs]
- viability, T/C (compound 0.316 µM): 73% [middle of 5 runs]
- viability, T/C (compound 1 µM): 39.9% and 40.4% (2×) and 33.2%
- viability, T/C (compound 10 µM): 12.9% [middle of 5 runs]
- IC50 (curve of compound): 746 nM [middle of 5 runs]
